# ChEMBL document CHEMBL1136787, “Design, synthesis, and biological evaluation of monopyrrolinone-based HIV-1 protease inhibitors” (J Med Chem, 2003)
# How the values were obtained:
# [1] = molecular target: T1, Human immunodeficiency virus type 1 protease (Human immunodeficiency virus 1, UniProt Q72874); assay: Inhibitory activity against HIV-1 protease was determined
# [2] = tested on: Human immunodeficiency virus 1; assay: Anti-viral activity was determined; format: functional; details: read-out: CIC95
# [3] = Ratio (CIC95/IC50) of cellular antiviral activity over the isolated enzyme potency; format: functional
# [4] = molecular target: T1, Human immunodeficiency virus type 1 protease; assay: Inhibitory activity against HIV-1 protease mutant was determined
SMILES,IC50 [1] [nM],IC95 [2] [nM],C/I [3],IC50 [4] [nM]
CC(C)C[C@@]1(C2=C(O)[C@](Cc3ccccc3)(C[C@H](O)[C@H](Cc3ccccc3)NC(=O)OC(C)(C)C)N=C2)N=CC([C@@H](Cc2ccccc2)C(N)=O)=C1O,10,1500,–,–
CC(C)(C)OC(=O)N[C@@H](Cc1ccccc1)[C@@H](O)C[C@@H](Cc1ccccc1)C(=O)N[C@H]1c2ccccc2C[C@H]1O,–,400,1333,–
"O=C(N[C@@H](Cc1ccccc1)[C@@H](O)C[C@]1(Cc2ccccc2)N=CC(C2c3ccccc3C[C@H]2O)=C1O)O[C@H]1CCOC1 (single isomer, unassigned; (-))",–,100,–,129
"CC(C)C[C@@]1(C2=C(O)[C@](Cc3ccccc3)(C[C@H](O)[C@H](Cc3ccccc3)NC(=O)OC3CCOC3)N=C2)N=CC([C@@H](Cc2ccccc2)C(N)=O)=C1O (single isomer, unassigned; (-))",1.3,800,–,–
"NC(=O)O[C@@H]1Cc2ccccc2C1C1=C(O)[C@](Cc2ccccc2)(C[C@H](O)[C@H](Cc2ccccc2)NC(=O)O[C@H]2CCOC2)N=C1 (single isomer, unassigned; (-))",–,250,125,364
"CC(C)(C)OC(=O)N[C@@H](Cc1ccccc1)[C@@H](O)C[C@]1(Cc2ccccc2)N=CC(C2c3ccccc3C[C@H]2O)=C1O (single isomer, unassigned; (-))",–,800,–,–
O=C(N[C@@H](Cc1ccccc1)[C@@H](O)C[C@@H](Cc1ccccc1)C(=O)N[C@H]1c2ccccc2C[C@H]1O)OC1CCOC1 (stereo partly drawn),–,3,100,–
"O=C(N[C@@H](Cc1ccccc1)[C@@H](O)C[C@]1(Cc2ccccc2)N=CC(C2CNC(=O)c3ccccc32)=C1O)O[C@H]1CCOC1 (single isomer, unassigned; (+))",–,781,137,–
CC(C)(C)NC(=O)[C@@H]1CN(Cc2cccnc2)CCN1C[C@@H](O)C[C@@H](Cc1ccccc1)C(=O)N[C@H]1c2ccccc2C[C@H]1O.O,–,25,69,–
